According to paper PMC8389697, “Development and Characterization of a Novel Peptide—Drug Conjugate with DM1 for Treatment of FGFR2-Positive Tumors” (Biomedicines, 2021):
Square brackets hold non-standard residues; d marks the D form. Ends that are not written are not given here. Hyp = O=C(O)[C@@H]1C[C@@H](O)CN1; Aad = N[C@@H](CCCC(=O)O)C(=O)O; Cit = NC(=O)NCCC[C@H](N)C(=O)O; Nva = CCC[C@H](N)C(=O)O; Ac3c = NC1(C(=O)O)CC1

Assays:
[1] = system: MCF-7 cells; assay: Clone formation experiment; format: cell-based, human; settings: MCF-7, 200 cells per well, 1 week, crystal violet; performed three times
Description: We seeded 200 cells per well in 6-well plates with culture medium. After 12 h, the cells were incubated with different agents for 1 week at 37 °C with 5% CO2. Then, we washed the wells with PBS, fixed the cells with methanol for 10 min and stained them with crystal violet at room temperature. Finally, we washed them with sterile water several times in order to obtain a clean background, and then, the colonies formed were photographed and statistically analyzed.

[2] = once per week; no reference given; cited from earlier work
Excerpt: We investigated the antitumor efficacy of those two PDCs on xenografted mice in vivo.

[3] = biological target: T1, FGFR2 extracellular motif protein (UniProt P21802 22-377); assay: ITC; ITC200, 25 °C, both dissolved in sterile water; 0.1 mM peptide in the sample cell, 0.001 mM FGFR protein in the syringe; 19 injections of 2 µL, 5 min apart; settings: both partners purified
T1 construct: fibroblast growth factor receptor 2 (FGFR2), recombinant, 'extracellular motif protein'; No catalogue number is printed; limits, isoform (IIIb or IIIc) and tag of the bought protein are unknown; also called FGFR2 protein; recombinant proteins of the FGFR2; source: bought: Sino Biological
T1 sequence (P21802 22-377): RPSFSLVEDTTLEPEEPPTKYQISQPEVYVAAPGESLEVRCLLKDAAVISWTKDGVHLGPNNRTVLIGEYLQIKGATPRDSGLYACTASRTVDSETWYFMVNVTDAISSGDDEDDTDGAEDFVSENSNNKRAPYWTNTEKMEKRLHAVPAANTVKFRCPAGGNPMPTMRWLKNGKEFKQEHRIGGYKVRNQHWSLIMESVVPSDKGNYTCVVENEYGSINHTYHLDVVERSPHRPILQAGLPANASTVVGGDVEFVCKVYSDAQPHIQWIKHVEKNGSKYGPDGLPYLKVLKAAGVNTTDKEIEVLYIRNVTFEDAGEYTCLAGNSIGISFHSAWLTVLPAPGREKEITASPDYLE

Row | Ka [3] | Kd [3] | Molecule | concentration that completely suppresses clone formation [1] | tolerated concentrations in mice [2]
1 | – | – | COc1cc2cc(c1Cl)N(C)C(=O)C[C@H](OC(=O)[C@H](C)N(C)C(=O)CCS)[C@]1(C)O[C@H]1[C@H](C)[C@@H]1C[C@@](O)(NC(=O)O1)[C@H](OC)/C=C/C=C(\C)C2 [DM1, reference compound] | 0.001 µg/mL | 1.0 to 1.5 mg/kg
2 | 1.04e+09 M⁻¹ | 960 pM | [Hyp][dL][Cit][dD][dN][dK][Ac3c][Nva][Aad] [LLC2B] | – | –
